# Measurements taken from US20160271248A1, “CXCR4 UP- AND DOWN-REGULATION FOR TREATMENT OF DISEASES OR DISORDERS” (priority 2013, published 2016).
# Read-outs that look alike come from different tables or passages of the source.
# Legend:
# [1] = system: Rat cortical neurons; format: cell-based; details: for effect on CXCL12-induced increase of spine density: AMD3100 100 ng/ml 20 min or PTx 100 ng/ml 18 hrs before CXCL12 (20 nM, 3 hours)
# Protocol: (§1) Rat cortical neurons were cultured in the presence of a glial feeder layer, using the bilaminar cell culture model. Due to the presence of glia this culture system largely preserves the in vivo mechanisms of neuronal growth and differentiation, but also allows for direct studies on neurons, which were separated from glia at the time of analysis. Selected experiments were performed using glia-free neuronal cultures, as noted, using previously described protocols (Sengupta et al., 2009, J. Neurosci. 29:2534-2544). Neurons were transfected at the time of plating by Nucleofection (Amaxa), or after 8 days in culture by lipofectamine (Invitrogen). All experiments were conducted at 21 DIV, unless otherwise noted. HDAC4 and control (scrambled) siRNA were obtained from Ambion (s170677 and 4390843), and FHC/scrambled shRNA from GenScript (custom order; shRNA vector also expressed GFP).
# For in vitro experiments, neurons were cultured in the presence of glia for 21 days, then fixed and stained for MAP2 (Millipore, 1:1000; detected with Goat antirabbit Alexa 568, Invitrogen 1:250) and counterstained with phalloidin (Invitrogen, 25 μg/mL). For FHC shRNA experiments neurons were identified and analyzed using incorporated GFP expression. Images were acquired with a Zeiss LSM5 laser scanning confocal microscope, using a 63× objective. Dendritic spines were defined as phalloidin- or GFP-positive protrusions clearly connected to the dendrite by a thin shaft. For each neuron 3-4 segments totaling at least […] in length were added to measure spine density, and each neuron was represented as a single data point. Each experiment included 3-4 coverslips from each of 2 or more separate preparations. For in vivo experiments, dendritic spines were visualized using a Golgi stain kit, following instructions from the manufacturer (FD NeuroTechnologies). Brains were rapidly removed, rinsed in H2O, and incubated in the Golgi stain for 2 weeks. The tissue was then cryoprotected in sucrose at 4° C. for 7 days, and frozen in isopentane. Brains were sectioned by cryostat at a thickness of 180 μm, and mounted on gelatin-coated microscope slides. Sections were allowed to dry overnight, and a signal intensification step performed before dehydrating, clearing in xylene, and coversliping with Permount (Fisher Scientific). Spine analysis was performed using Neurolucida software equipped with a 100× objective (FIG. 7A). Pyramidal neurons in layer 2-3 of prefrontal cortex were identified and reconstructed in their entirety, and total spine density for each neuron was reported as a single data point. 3 neurons were analyzed from each brain, and 4-5 brains used for each experimental group.
# [2] = system: FHC; assay: Neuronal FHC protein levels by Western blot in cultured cortical neurons; format: cell-based, rat; details: for FHC protein levels: neurons in the absence of glia, 0.5 to 30 ng/mL, vs vehicle
# Protocol: as §1
# (§2) Protease and phosphatases inhibitors were added to both buffers.
# Rat cortical neurons were cultured in serum-free media in the presence of a glial feeder layer (Shimizu, et al., 2011, J. Vis. Exp. 57). This culture system largely preserves the in vivo environment, due to the presence of glia; however, it still enables direct investigation of neurons that can be separated by the glia before experiments. Selected studies were also performed in neurons grown in the absence of glia for the entire culture period, as indicated (Sengupta, et al., 2009, J. Neurosci. 29(8):2534-44). All experiments were conducted between 8-13 days in vitro (DIV).
# Total protein extracts were obtained using standard protocols. […] The following antibodies were used: anti-FHC (3998, Cell Signaling Technology, 1:1,000) and anti-β-actin (A2066, Sigma-Aldrich, 1:5,000).
# [3] = system: CXCR4; assay: Multispectral imaging of total CXCR4 optical density within MAP2+ neurons, non-human primate; format: in vivo, rhesus macaque; details: morphine treated macaques; frontal cortex
# [4] = system: pCXCR4-Ser339; assay: Multispectral imaging of pCXCR4 optical density within MAP2+ neurons, non-human primate; format: in vivo, rhesus macaque; details: morphine treated macaques; frontal cortex
# [5] = system: FHC; assay: Multispectral imaging of FHC optical density within MAP2+ neurons, non-human primate; format: in vivo, rhesus macaque; details: morphine 3 then 5 mg/kg 3 times daily, 90-110 days; frontal cortex
# [6] = system: FHC; assay: FHC transcript levels in neurons; format: cell-based, rat; details: neurons in the absence of glia
# [7] = system: HDAC4; assay: Nuclear HDAC4 levels by immunocytochemistry and western blot; format: cell-based, rat; details: pure neuronal culture; CXCL12 20 nM, 30 min
# Protocol: as §2
# Neurons were fixed in 4% paraformaldehyde, and stained with MAP2 (Millipore, 1:1000) and HDAC4 (Epigentek, 1:150), detected with cy2- and cy3-conjugated secondary antibodies. Cell nuclei were visualized with Hoechst (Invitrogen, 1:2000), and images were acquired with a Zeiss LSM5 laser scanning confocal microscope (Imager.Z1m), mounting 10, 20, 40, and 63× objectives.
# [8] = system: layer 2/3 pyramidal neurons in the prefrontal cortex; format: cell-based, rat
# [9] = system: layer II/III pyramidal neurons of the prefrontal cortex; assay: In vivo dendritic spine analysis (Golgi stain, Neurolucida); set-up: species or system rat
# [10] = system: HOS cells; assay: Calcein assay (labile iron pool); format: cell-based, human; details: DFO 100 µM, six hours; empty vector HOS cells
# Protocol: HOS cells transfected with either empty vector (EV), wild type FHC (WT-FHC) or FHC 222 mutant (Mut-FHC) were plated in 96-well plates at 20,000 cells per well. After 24 hours of serum starvation, vehicle or the iron chelator DFO ([…]) were added, respectively, to the untreated EV wells (Control) and to the positive control wells (DFO). Six hours later all cells were washed with PBS, and loaded with the iron-binding dye calcein (200 μg/mL) for 20 minutes. Cells were then washed again in PBS, and calcein fluorescence measured (excitation 485 nm, emission 535 nm), as a measure of the labile iron pool.
# Human osteosarcoma cells expressing high levels of CXCR4 (HOS-X4) were transfected with either of these FHC plasmids and selected to generate stable cell lines. First, in order to confirm the differential effects of these proteins on iron sequestration, free intracellular iron levels were compared using the fluorescent probe calcein. Calcein is delivered as a calcein-AM ester, which passes across the plasma membrane into cells and is cleaved by cytosolic esterases to produce membrane-impermeable calcein. The fluorescence of this trapped calcein is quenched following chelation with labile iron, and therefore the degree of quenching is a commonly used estimation of free intracellular iron levels.
# [11] = AMD3100 1 μg ICV, 6 hours, CXCL12 20 nM, 3 hours slice incubation
# [12] = held at −70 mV, picrotoxin, AMD3100 ICV or CXCL12 20 nM 3 hrs
compound,measurement,setting,value
pertussis toxin,effect on CXCL12-induced increase of spine density,[1],blocked
CN1CC[C@]23c4c5ccc(O)c4O[C@H]2[C@@H](O)C=C[C@H]3[C@H]1C5 [morphine],ability of morphine to regulate spines in FHC-deficient neurons,[1]; FHC-specific shRNA vs scrambled,blocked
same,number of dendritic spines,"[1]; morphine 1 μm, 24 hours, 21 days culture",significant decrease in the number of dendritic spines
same,FHC levels,"[2]; cultured rat cortical neurons, morphine 1 μm, 24 hours",significantly increases FHC levels
same,total neuronal CXCR4 levels,[3],unchanged
same,neuronal pCXCR4 levels,[4],significant reduction in pCXCR4 levels
same,neuronal FHC (OD within MAP2+ neurons),[5],significantly elevated
TNF-α,FHC transcript levels,[6],increased
same,FHC protein levels,[2],significant increase of FHC protein levels
"CXCL12: recombinant chemokine CXCL12 from Peprotech, endogenous CXCR4 ligand",dendritic spine density,"[1]; 21 days culture with glial feeder layer, CXCL12 20 nM, 3 hours",moderate but significant increase in spine density
same,effects of CXCL12 on spine density in HDAC4-deficient neurons,"[1]; HDAC4-specific siRNA, pure neuronal population",completely prevented
same,dendritic spines,"[1]; pure neuronal population, 21 days, 20 nM CXCL12, multiple time points",time-dependent increase in dendritic spines
same,nuclear HDAC4 levels,[7],increased nuclear HDAC4 levels
same,mEPSC amplitude,[8],25.25±1.02 pA
same,mEPSC frequency,[8],1.43±0.25 Hz
same,resting membrane potential,[8],−76.1 ± 2.3 mV
same,sEPSC amplitude,[8],25.32±0.43 pA
same,sEPSC frequency,[8],1.85±0.41 Hz
same,20-80% rise time,[8]; [11],0.29 ± 0.01 ms
same,after hyperpolarization,[8]; [11],−12.0 ± 0.9 mV
same,input resistance,[8]; [11],121.8 ± 13.2 M′Ω
same,peak spike amplitude,[8]; [11],74.0 ± 2.8 mV
same,spike half-width,[8]; [11],1.2 ± 0.07 ms
same,spike threshold,[8]; [11],−42.9 ± 2.3 mV
same,spike number generation in response to varying step currents,"[8]; current clamp, AMD3100 ICV or CXCL12 ex vivo vs vehicle",no drug effect on spike number generation
"IL-1β: Recombinant IL-1β, proinflammatory cytokine, R&D Systems",FHC transcript levels,[6],did not affect levels of FHC mRNA
same,FHC protein levels,[2],significant increase of FHC protein levels
"c1cc(CN2CCCNCCNCCCNCC2)ccc1CN1CCCNCCNCCCNCC1 [AMD3100, 1,1′-[1,4-phenylenebis (methylene)]bis[1,4,8,11-tetraazacyclotetradecane], reference compound]",effect on CXCL12-induced increase of spine density,[1],blocked
same,20-80% rise time,[8],0.31 ± 0.02 ms
same,after hyperpolarization,[8],−12.8 ± 1.5 mV
same,mEPSC amplitude,[8],16.55±0.55 pA
same,mEPSC frequency,[8],2.27±0.33 Hz
same,peak spike amplitude,[8],72.6 ± 5.3 mV
same,resting membrane potential,[8],−76.9 ± 2.3 mV
same,spike half-width,[8],1.3 ± 0.12 ms
same,spike number generation in response to varying step currents,[8],no drug effect on spike number generation
same,spike threshold,[8],−38.4 ± 3.0 mV
same,input resistance,[8]; [11],138.3 ± 9.5 M′Ω
same,sEPSC amplitude,[8]; [12],16.79±0.80 pA
same,sEPSC frequency,[8]; [12],3.84±0.65 Hz
same,dendritic spine density,"[9]; osmotic pump into left lateral ventricle, 0.75 μg/hour for 4 days",similarly able to decrease dendritic spine densities
same,dendritic spine density,"[9]; single 1 μg ICV injection, 3-week-old rats, 6 hours post-injection",significantly decreased spine densities
"CC(=O)N(O)CCCCCNC(=O)CCC(=O)N(O)CCCCCNC(=O)CCC(=O)N(O)CCCCCN [DFO, desferrioxamine]",calcein fluorescence,[10],increased
